From patent US10988523B2, “Modified lipidated Relaxin B chain peptides and their therapeutic use” (Sanofi, priority 2018, dated 2021)
*1 amine or outer side, *2 acyl side, *3 side chain or, on linkers, in order; H or OH if unused. Where a SMILES comes first, the peptide text is derived from it. Side-chain parts run from the residue outwards. [ ]: non-standard residue; d: D form. The star is where a group is joined. X11 = CCCCCCCCCCCCCCCC(=O)N[C@@H](CCC(=O)NCCCC[C@H](NC(=O)CC[C@H](NC(=O)CC[C@H](NC(=O)CC[C@H](NC(=O)CCC(=O)NCCCOCCOCCOCCCNC(=O)CCC(=O)NCCCOCCOCCOCCCNC(=O)CCC(=O)NCCCOCCOCCOCCCN*)C(=O)O)C(=O)O)C(=O)O)C(N)=O)C(=O)O; γGlu = O=C(O)[C@H](CCC(=O)[*:2])N[*:1]; Palmitoyl = CCCCCCCCCCCCCCCC(=O)*; αMeK = C[C@](N)(CCCCN)C(=O)O; Nle = CCCC[C@H](N)C(=O)O; AEEA = NCCOCCOCC(=O)O; Aib = CC(C)(N)C(=O)O

Key:
RXFP1 = biological target: T1, RXFP1 (Homo sapiens, UniProt Q9HBX9); experiment: OVCAR5 cAMP assay (HTRF), RXFP1 agonist activity; assay type: cell-based; conditions: for EC50: OVCAR5 cells, cAMP HTRF, read-out: EC50 (nM), OVCAR 5 cells (cAMP); for Emax: OVCAR-5, maximal cAMP relative to H2-relaxin maximum (100%), read-out: EMax, OVCAR 5 cells (cAMP)
T1 construct: OVCAR5 cells expressing endogenous RXFP1; endogenous in cells; host or cells: OVCAR5 cells
T1 sequence (Q9HBX9 1-757): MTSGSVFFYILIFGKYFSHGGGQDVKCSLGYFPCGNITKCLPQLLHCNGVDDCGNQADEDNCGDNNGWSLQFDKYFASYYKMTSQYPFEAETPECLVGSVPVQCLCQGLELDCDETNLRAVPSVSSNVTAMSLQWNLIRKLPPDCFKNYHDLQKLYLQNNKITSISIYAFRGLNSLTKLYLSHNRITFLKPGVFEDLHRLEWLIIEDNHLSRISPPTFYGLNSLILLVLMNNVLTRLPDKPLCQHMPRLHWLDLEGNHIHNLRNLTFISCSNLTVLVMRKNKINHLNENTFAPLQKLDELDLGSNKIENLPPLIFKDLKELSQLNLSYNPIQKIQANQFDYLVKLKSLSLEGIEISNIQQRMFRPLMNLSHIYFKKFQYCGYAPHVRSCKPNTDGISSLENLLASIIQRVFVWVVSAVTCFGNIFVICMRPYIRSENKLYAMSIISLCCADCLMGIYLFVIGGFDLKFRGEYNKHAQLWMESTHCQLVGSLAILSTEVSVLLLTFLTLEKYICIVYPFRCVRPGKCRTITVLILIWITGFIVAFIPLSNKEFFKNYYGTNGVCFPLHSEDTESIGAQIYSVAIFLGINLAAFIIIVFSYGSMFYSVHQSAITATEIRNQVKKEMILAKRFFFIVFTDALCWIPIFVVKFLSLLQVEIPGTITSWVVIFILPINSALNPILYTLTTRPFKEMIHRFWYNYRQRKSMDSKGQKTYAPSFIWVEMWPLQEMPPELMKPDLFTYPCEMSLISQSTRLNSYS
How it was run: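 OVCAR5 cells (endogenous RXFP1) pretreated 40 min at 37° C with 1 mM IBMX, then exposed to peptides in serum-free medium for 30 min at 37° C. Lysate cAMP read by HTRF; EC50 from variable-slope sigmoidal fit; Emax as % of H2-relaxin maximal cAMP in same run.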

[1] = Pharmacokinetic (PK) determination after i.v. or s.c. administration to rats; assay type: in vivo, Sprague Dawley rats; conditions: Rat PK, 1 mg/kg i.v.
Method: Prior to the testing of a peptide batch, its purity (HPLC-UV) was determined. Dose was corrected for presence of salts, solvent and purity.
Sprague Dawley rats were dosed with study peptide at a dose of 1 mg/kg intravenously (i.v.) or 3 mg/kg subcutaneously (s.c.) as a solution in PBS (0.2 mg/ml and 0.6 mg/ml respectively).
Plasma samples were analyzed after protein precipitation via liquid chromatography mass spectrometry (LC/MS).
PK parameters and half-life were calculated using Phoenix 64 (WinNonlin 6.4)-Pharsight (Certara™) (non-compartment model). Values below the limit of quantification (BLQ) were replaced by zero for subsequent calculations and PK analysis.
T½: in-vivo half life, time required for test compound plasma concentration to be divided by two during the PK experiment.
C0: Extrapolated test compound plasma concentration at t=0 time point (i.v. route).
Cmax: maximal test compound plasma concentration at the indicated time point (s.c. route).
Tmax: Time point where Cmax is attained.
F %: s.c. vs i.v. bioavailability, dose-corrected area under curve (AUC) s.c. route divided by AUC i.v.

Row | EC50 (RXFP1) [nM] | Emax (RXFP1) [%] | Compound | T½ (in-vivo half life) [1] [min] | C0 ([1]; read-out: C0 (extrapolated plasma concentration at t=0)) [nM]
1 | 0.17 | 93 | CCCCCCCCCCCCCCCC(=O)N[C@@H](CCC(=O)N[C@@H](CCC(=O)N[C@@H](CCC(=O)N[C@@H](CCC(=O)NCCOCCOCC(=O)NCCOCCOCC(=O)NCCOCCOCC(=O)NCCOCCOCC(=O)NCCCC[C@H](NC(=O)[C@H](CCCCNC(C)=O)NC(=O)[C@H](C)NC(=O)[C@H](CCCNC(=N)N)NC(=O)[C@](C)(CCCCN)NC(=O)[C@H](CO)NC(=O)[C@H](Cc1ccccc1)NC(=O)[C@@H](NC(=O)[C@H](CO)NC(=O)[C@H](CCC(N)=O)NC(=O)CNC(=O)[C@H](CCC(=O)O)NC(=O)C(C)(C)NC(=O)C(C)(C)NC(=O)[C@@H](NC(=O)[C@H](CCCCNC(C)=O)NC(=O)[C@H](C)NC(=O)[C@H](CCCNC(=N)N)NC(=O)[C@@H](NC(=O)[C@H](CCCCN)NC(=O)[C@H](CCC(=O)O)NC(=O)[C@H](CCCNC(=N)N)NC(=O)CNC(=O)[C@H](CCC(=O)O)NC(=O)[C@H](CC(C)C)NC(C)=O)C(C)C)[C@@H](C)CC)[C@@H](C)O)C(N)=O)C(=O)O)C(=O)O)C(=O)O)C(=O)O [compound 191] (Ac-LEGREKVRAK(Ac)I[Aib][Aib]EGQSTFS[αMeK]RAK(Ac)K([AEEA-AEEA-AEEA-AEEA-γGlu-γGlu-γGlu-γGlu-Palmitoyl])-NH2) |  | 
2 |  | 91 | CCCCCCCCCCCCCCCC(=O)N[C@@H](CCC(=O)N[C@@H](CCC(=O)N[C@@H](CCC(=O)NCCCC[C@H](NC(=O)COCCOCCNC(=O)COCCOCCNC(=O)COCCOCCNC(=O)COCCOCCNC(=O)[C@H](CCCCNC(C)=O)NC(=O)[C@H](C)NC(=O)[C@H](CCCNC(=N)N)NC(=O)[C@](C)(CCCCN)NC(=O)[C@H](CO)NC(=O)[C@H](Cc1ccccc1)NC(=O)[C@@H](NC(=O)[C@H](CO)NC(=O)[C@H](CCCC)NC(=O)CNC(=O)[C@H](CCC(=O)O)NC(=O)C(C)(C)NC(=O)C(C)(C)NC(=O)[C@@H](NC(=O)[C@H](CCCCNC(C)=O)NC(=O)[C@H](C)NC(=O)[C@H](CCCNC(=N)N)NC(=O)[C@@H](NC(=O)[C@H](CCCCN)NC(=O)[C@H](CCC(=O)O)NC(=O)[C@H](CCCNC(=N)N)NC(=O)CNC(=O)[C@H](CCC(=O)O)NC(=O)[C@H](CC(C)C)NC(C)=O)C(C)C)[C@@H](C)CC)[C@@H](C)O)C(N)=O)C(=O)O)C(=O)O)C(=O)O [compound 192] (Ac-LEGREKVRAK(Ac)I[Aib][Aib]EG[Nle]STFS[αMeK]RAK(Ac)[AEEA][AEEA][AEEA][AEEA]K([γGlu-γGlu-γGlu-Palmitoyl])-NH2) |  | 
3 | 0.2 | 100 | CCCCCCCCCCCCCCCC(=O)N[C@@H](CCC(=O)NCCCC[C@H](NC(=O)CC[C@H](NC(=O)CC[C@H](NC(=O)CC[C@H](NC(=O)CCC(=O)NCCCOCCOCCOCCCNC(=O)CCC(=O)NCCCOCCOCCOCCCNC(=O)CCC(=O)NCCCOCCOCCOCCCNC(=O)[C@H](CCCCNC(C)=O)NC(=O)[C@H](C)NC(=O)[C@H](CCCNC(=N)N)NC(=O)[C@](C)(CCCCN)NC(=O)[C@H](CO)NC(=O)[C@H](Cc1ccccc1)NC(=O)[C@@H](NC(=O)[C@H](CO)NC(=O)[C@H](CCCC)NC(=O)CNC(=O)[C@H](CCC(=O)O)NC(=O)C(C)(C)NC(=O)C(C)(C)NC(=O)[C@@H](NC(=O)[C@H](CCCCNC(C)=O)NC(=O)[C@H](C)NC(=O)[C@H](CCCNC(=N)N)NC(=O)[C@@H](NC(=O)[C@H](CCCCN)NC(=O)[C@H](CCC(=O)O)NC(=O)[C@H](CCCNC(=N)N)NC(=O)CNC(=O)[C@H](CCC(=O)O)NC(=O)[C@H](CC(C)C)NC(C)=O)C(C)C)[C@@H](C)CC)[C@@H](C)O)C(=O)O)C(=O)O)C(=O)O)C(N)=O)C(=O)O [compound 193] (Ac-LEGREKVRAK(Ac)I[Aib][Aib]EG[Nle]STFS[αMeK]RAK(Ac)-X11) |  | 
4 |  |  | H2-Relaxin: 6-kDa peptidic hormone of 53 amino acids; chain A (SEQ ID NO: 194) and chain B (SEQ ID NO: 195) cross-linked by disulfide bonds | 27.6 | 870
